Data from publication PMC3563528, “Ultrashort Cationic Lipopeptides and Lipopeptoids Selectively Induce Cytokine Production in Macrophages” (PLoS ONE, 2013).
Where “and” joins values, the source holds several entries; their conditions need not be identical. Equal values may be shown once. Marks after values point to notes of the source that are not given here.

Experiments:
MRSA ATCC 33592 = test system: MRSA ATCC 33592; design: method as in earlier work; settings: data from previous studies converted into µM; cited from earlier work
S.aureus ATCC 29213 = test system: S.aureus ATCC 29213; design: method as in earlier work; settings: data from previous studies converted into µM; cited from earlier work
[1] = test system: MRSE (CZ >32) CAN-ICU 61589; design: method as in earlier work; settings: data from previous studies converted into µM; cited from earlier work
MSSE 81388 CANWARD 2008 = test system: MSSE 81388 CANWARD 2008; design: method as in earlier work; settings: data from previous studies converted into µM; cited from earlier work
[2] = test system: human macrophage-like THP-1 cells; assay: Groα production by ELISA in TC supernatants; assay type: cell-based; settings: 24 h exposure; for Groα induction (in words): concentrations tested up to 100 µM
Method: (§1) Prior to testing, human monocytic THP-1 cells were differentiated to plastic-adherent macrophage-like THP-1 cells as previously described. The cells were rested for twenty-four hours, then exposed to the amphiphiles of interest for twenty-four hours. Cell free TC supernatants were monitored for the production of chemokines Groα and IL-8 by ELISA as previously described, [34]. The constitutive background level of chemokine Groα was 6.6±1.8 pg/ml, and that of IL-8 was 1.7±0.16 ng/ml. Encouragingly, the majority of compounds were strong inducers of both IL-8 and Groα and increased chemokine levels above background (Figure 2). […] The three amphiphiles with a LysLysLys peptide sequence and lipid tail at least sixteen carbons in length, 5–7, were especially strong inducers of IL-8, increasing the concentration to 5–8 ng/mL (p<0.05) above control at 10 µM of lipopeptide, and up to 13 ng/mL (p<0.01) above control at 50 µM (Figure 2). These amphiphiles compared favourably to LL-37 (1.3 ng/mL of IL-8 above control at 10 µM), despite their brief peptide sequence. […] All lipopeptides with lipid tails shorter than sixteen carbons were unable to induce either IL-8 or Groα at concentrations up to 100 µM (Figure 2, Figure S1).
(§2) ELISA results were obtained from two biological replicates with two technical replicates each and statistical analyses was performed using Student paired t-test. Error bars in the graphs represents standard error of the mean, and a p-value of less that 0.05 was considered to be statistically significant.

[3] = test system: human macrophage-like THP-1 cells; assay: IL-8 production by ELISA in TC supernatants; assay type: cell-based; settings: 24 h exposure; for IL-8 induction (in words): concentrations tested up to 100 µM; for IL-8 production: mean ± sem
Method: as §1, §2

[4] = test system: human macrophage-like THP-1 cells; assay: TNF-α production by ELISA in TC supernatants; assay type: cell-based; settings: any concentration tested, at or below 100 µM, 24 h exposure
Method: as §2
Supplementary file pone.0054280.s002.tiff: Figure S2 TNF-α production by human macrophage-like THP-1 cells following incubation with amphiphiles 1–21. TC supernatants were monitored for cytokine production via ELISA, and results are reported in pg/mL. All studies were performed in two independent biological replicates with two technical replicates each. (TIFF) Click here for additional data file.

[5] = test system: human macrophage-like THP-1 cells; assay: IL-1β production by ELISA in TC supernatants; assay type: cell-based; settings: 24 h exposure
Method: Figure 3 IL-1β production. Human macrophage-like THP-1 cells were exposed to amphiphiles 4–11 and 14–21, for twenty-four hours. TC supernatants were monitored for IL-1β by ELISA, with results shown in pg/mL. Studies were performed in two independent biological replicates with two technical replicate each, with the data here presented as the mean plus sem. Inset: Expanded results for the negative control and amphiphiles 4–7 at 5 µM and 10 µM.
as §2

Gram positive strains = settings: in vitro; cited from earlier work
Text: We have shown that ultrashort lipopeptides and lipopeptoids are able to induce selective cytokine production in human macrophages, despite little structural similarity to any known host defence peptide or CAMP.

[6] = 50 µM amphiphile, two biological replicates with two technical replicates each
[7] = 50 µM amphiphile, mean ± sem, two biological replicates with two technical replicates each

| Substance | Antimicrobial activity (MIC) (MRSA ATCC 33592) | Antimicrobial activity (MIC) (S.aureus ATCC 29213) | Antimicrobial activity (MIC) [1] | Antimicrobial activity (MIC) (MSSE 81388 CANWARD 2008) | Groα induction (in words) [2] | IL-8 induction (in words) [3] | further results |
| --- | --- | --- | --- | --- | --- | --- | --- |
| C11-LysLysLys-NH2 [compound 4] | >561 µM | 561^a μM | 281 µM | 281 µM |  |  |  |
| C11-NLysGlyNLys-NH2 [compound 12] |  |  |  |  | inactive | inactive |  |
| C16-LysGlyLys-NH2 [compound 1] |  |  |  |  |  |  | IL-8 above control [3, 6]: 0.2 ng/mL |
| C16-LysLysLys-NH2 [compound 5] | 4.1 µM | 8.1 µM | <0.25 µM | <0.25 µM |  |  | IL-8 production [3, 6]: 7.7 ± 0.6 ng/mL |
| C16-NLysGlyNLys-NH2 [compound 13] |  |  |  |  | inactive | inactive |  |
| C16OH-HarHarHar -NH2 [compound 10] |  |  |  |  |  |  | IL-8 production [3, 6]: up to 10 ng/mL |
| C16OH-LysGlyLys-NH2 [compound 2] |  |  |  |  |  | failed to significantly increase IL-8 production |  |
| C16OH-LysLysLys-NH2 [compound 6] | 128 µM | 128 µM | 128 µM | 128 µM |  |  | Groα production [2, 7]: 670 pg/mL; IL-8 production [3, 6]: 12.5 ± 0.5 ng/mL |
| C16OH-NHarNHarNHar-NH2 [compound 20] |  |  |  |  | moderate inducers | moderate inducers | TNF-α induction (in words) [4]: did not induce; IL-1β induction (in words) [5]: did not induce |
| C16OH-NLysNLysNLys-NH2 [compound 16] |  |  |  |  | moderate inducers | moderate inducers | TNF-α induction (in words) [4]: did not induce; IL-1β induction (in words) [5]: did not induce |
| C20-HarHarHar-NH2 [compound 11] |  |  |  |  |  |  | IL-8 production [3, 6]: up to 10 ng/mL |
| C20-LysGlyLys-NH2 [compound 3] |  |  |  |  |  | failed to significantly increase IL-8 production |  |
| C20-LysLysLys-NH2 [compound 7] | 7.7 µM | 7.7 µM | 7.7 µM | 7.7 µM |  |  | Increase of IL-1β concentration ([5]; moving from 10 µM to 50 µM): over forty-fold |
| C20-NHarNHarNHar-NH2 [compound 21] | 14 µM | 6.9 µM | 6.9 µM | 6.9 µM | strongest inducer | moderate inducer | Groα production [2, 7]: 996 ± 4 pg/mL and 1000 pg/mL; Groα production ([2]; 100 µM amphiphile): 200 pg/mL; IL-8 production ([3]; 50 and 100 µM amphiphile): 6 ± 0.8 ng/mL; MIC (Gram positive strains): ≤ 16 µg/mL |
| LLGDFFRKSKEKIGKEFKRIVQRIKDFLRNLVPRTES-OH [LL-37, human cathelicidin LL-37, natural host defence peptide, positive control, reference compound] |  |  |  |  |  |  | Groα production ([2]; 2.5 µM): 800 pg/mL; IL-8 above control ([3]; 10 µM amphiphile, two biological replicates with two technical replicates each): 1.3 ng/mL |
